The source of these data is patent US9586916B2, “Integrin antagonist conjugates for targeted delivery to cells expressing alpha-V-beta-3” (Hoffmann-La Roche Inc., priority 2012, dated 2017).

The assay has as its target T1, αVβ3 (Homo sapiens, UniProt P05106+P06756).
T1 construct: purchased R & D 3050-AV
The assay is described as follows: Human αVβ3 solid phase assay (fibrinogen binding to coated αVβ3). The settings on record: αVβ3 coated plates, fibrinogen as ligand. How it is done: The following assay was conducted to assess αVβ3 binding affinity of the αVβ3-targeted compounds of this invention.
Human αVβ3 solid phase assay:
Immuno 96-well Plates (NUNC, Part#439454) were coated with αVβ3 (R & D, Cat#3050-AV) by adding 100 uL of αVβ3 (lx) to each well and incubating the plates overnight at […]. Buffer used was Buffer A: 20 mM Tris, 150 mM NaCl, 1 mM CaCl2, 1 mM MgCl2, pH7.4. After removal of the coating reagent, 150 uL of 3.5% BSA in Buffer A was added to each well to block the plates for 105 minutes at […]. After blocking, plates were washed 5 times with 200 uL of Buffer B (Buffer A+1 mM MnC12). 50 uL of test compound solution (2×) in 5% DMSO and 50 uL of fibrinogen (2×) (Innovative Research, Cat# IFIB) were then added to each well. Plates were shaken for 2 minutes, and then incubated for 2 hours for 370 C. After the plates were washed 5 times with 200 uL of Buffer B, the 1st antibody rabbit anti-human fibrinogen (Innovative Research, Cat IASHFBGN-GF) in the amount of 100 uL/well, and the 2nd antibody Goat anti-rabbit IgG Horse-radish peroxidase conjugate (Invitrogen, Cat#G21234) in the amount of 50 uL/well were added to plates, respectively. […] After being added 100 uL/well Stop Buffer (1.0 M Phosphoric Acid […]), plates were read on Envision at Absorbance mode 450 nm.

T1 sequence (P06756 31-992 limits assumed): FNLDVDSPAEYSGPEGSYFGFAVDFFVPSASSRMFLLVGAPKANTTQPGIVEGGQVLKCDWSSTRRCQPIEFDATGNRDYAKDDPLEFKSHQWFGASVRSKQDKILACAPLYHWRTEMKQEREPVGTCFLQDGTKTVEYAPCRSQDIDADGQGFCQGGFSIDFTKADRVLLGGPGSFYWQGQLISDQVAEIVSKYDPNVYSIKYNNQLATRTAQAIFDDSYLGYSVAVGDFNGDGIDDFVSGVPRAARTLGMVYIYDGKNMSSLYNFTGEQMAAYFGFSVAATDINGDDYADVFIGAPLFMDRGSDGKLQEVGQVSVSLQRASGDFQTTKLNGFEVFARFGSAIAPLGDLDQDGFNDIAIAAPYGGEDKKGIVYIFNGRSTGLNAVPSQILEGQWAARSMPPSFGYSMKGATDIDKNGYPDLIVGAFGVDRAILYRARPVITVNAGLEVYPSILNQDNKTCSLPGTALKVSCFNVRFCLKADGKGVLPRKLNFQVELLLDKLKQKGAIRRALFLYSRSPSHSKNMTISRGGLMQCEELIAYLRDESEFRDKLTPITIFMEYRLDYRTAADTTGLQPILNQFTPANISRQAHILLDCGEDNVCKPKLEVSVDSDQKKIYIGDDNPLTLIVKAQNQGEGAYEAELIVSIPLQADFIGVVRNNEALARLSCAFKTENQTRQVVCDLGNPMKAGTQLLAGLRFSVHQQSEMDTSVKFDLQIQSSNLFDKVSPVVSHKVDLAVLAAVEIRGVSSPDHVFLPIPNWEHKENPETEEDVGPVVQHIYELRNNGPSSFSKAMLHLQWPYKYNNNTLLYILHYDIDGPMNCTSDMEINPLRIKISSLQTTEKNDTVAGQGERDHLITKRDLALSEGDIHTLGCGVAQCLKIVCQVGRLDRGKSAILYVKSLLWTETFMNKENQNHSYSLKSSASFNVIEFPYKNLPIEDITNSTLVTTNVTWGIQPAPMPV
T1 sequence (P05106 27-718 limits assumed): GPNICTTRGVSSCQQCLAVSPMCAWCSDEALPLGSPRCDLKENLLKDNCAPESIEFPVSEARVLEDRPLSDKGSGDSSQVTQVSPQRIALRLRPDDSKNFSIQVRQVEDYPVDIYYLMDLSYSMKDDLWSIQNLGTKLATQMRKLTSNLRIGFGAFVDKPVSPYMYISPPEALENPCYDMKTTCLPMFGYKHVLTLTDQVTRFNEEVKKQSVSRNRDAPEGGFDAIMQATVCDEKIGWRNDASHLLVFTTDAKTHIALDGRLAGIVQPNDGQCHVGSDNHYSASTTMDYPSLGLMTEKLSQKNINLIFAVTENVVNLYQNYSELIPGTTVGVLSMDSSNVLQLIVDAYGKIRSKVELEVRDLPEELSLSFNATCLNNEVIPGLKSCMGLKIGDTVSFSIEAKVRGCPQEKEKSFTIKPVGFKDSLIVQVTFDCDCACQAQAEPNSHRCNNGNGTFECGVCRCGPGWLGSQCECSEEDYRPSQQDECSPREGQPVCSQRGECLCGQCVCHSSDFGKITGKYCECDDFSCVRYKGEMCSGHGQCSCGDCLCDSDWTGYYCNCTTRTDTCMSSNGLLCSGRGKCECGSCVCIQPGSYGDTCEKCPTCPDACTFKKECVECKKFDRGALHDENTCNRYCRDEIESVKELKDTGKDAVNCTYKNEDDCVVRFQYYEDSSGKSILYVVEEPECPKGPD

Usually IC50 stands for the concentration at which inhibition is half-maximal. Read a low IC50 as greater potency. In turn, `COc1ccc(NC(=O)[C@H](CC(=O)O)NC(=O)CNC(=O)c2cccc(N=C(N)N)c2)cc1` [compound 141] yielded an IC50 of about 2 nM.
